Laboratory results: patent US7919508B2, “3-piperidinylisochroman-5-ols as dopamine agonists” (Aventis Pharmaceuticals Inc., priority 2004, dated 2011)
pKi: −log10 of the molar value. Structures can show the parent of a compound that is named as a salt.

What was measured:
[1] = molecular target: T1, human dopamine D1 receptor (Homo sapiens, UniProt P21728); test: [3H]-SCH-23390 binding to cloned human dopamine D1 receptors (CHO cell membranes); details: competitive binding, [3H]-SCH-23390, cloned human D1 in CHO membranes; read-out: D1 affinity Ki
T1 construct: A 1.4 Kb Hind III to Xho I fragment was subcloned into the vector pMMLV; expressed in transfected cells; host or cells: CHO cells, clone CHO-D1M#9 (plasmid pHD1MMLV), membranes
Description: [^3H]-SCH-23390 Binding to Cloned Human Dopamine D1 Receptors
Determination of relative binding affinity of potential neuropsychiatric and other agents for the human dopamine D1 receptor.
The human D, cDNA was obtained from the laboratory of Dr. Marc Caron in the vector pCMV5. A 1.4 Kb Hind III to Xho I fragment was subcloned into the vector pMMLV. The plasmid pHD1MMLV was then sequenced completely. Transient transfections in COS-7 cells were performed and D1 specific binding was obtained. The construct pHD1MMLV was then transfected stably into CHO cells and 72 G418-resistant clones were isolated. High expressors were identified by mRNA dot blot analysis. Six high expressors were further characterized by binding and then clone CHO-D1M#9 was chosen for detailed pharmacological characterization. This clone was then grown in suspension culture for the purpose of obtaining enough protein to accommodate several months of screening.
B. Cell Culture Conditions
• 1. […] Cells are transferred to suspension culture when at least […] are available (this allows for 300,000 cells/ml in a 50 ml spinner flask; this is the ideal suspension density). Cells are removed from flasks with trypsin, spun down at 1000×G and resuspended the pellet in fresh medium: • 50% CHO-SFM-II+50% Ham's F12 w/10% FBS (final FBS conc. 5%)+400 μg/ml G418+1% P/S. • 3. After the transfer to suspension culture, growth is monitored and cell viability is assessed using trypan blue exclusion. Total and viable cell count on 5 sectors of the hemocytometer are recorded. When the viable cell density reaches 600,000 cell/ml, the volume is doubled. • 4. After 1 week of growth in the 50/50 medium, the cells are spun down and transferred to a new spinner flask and replaced with 75% CHO-SFM II/25% Ham's F12+10% FBS plus the pen-strep and G418. Thereafter every 3 days, the medium is replaced with new medium containing a decreasing amount of FBS as follows:
• 5. The final maintenance culturing medium is made up as follows: • A stock mixture of 10 ml of pen-strep, 0.5 ml of […] (active; final concentration: 200 μg/ml) G418 and 1 ml of FBS are mixed and filtered and refrigerated. A volume (11.5 ml) of this mixture is added to a freshly opened 1 L bottle of CHO-SFM II. C. Membrane Preparation
Cells are harvested into 250 ml centrifuge tubes and spun down at 1200×G. The medium is removed and 100 ml PBS (phosphate-buffered saline) is added to each centrifuge tube; cells are resuspended and spun down again. The PBS is removed and the final pellet is homogenized with a polytron on ice at a medium setting.
The membrane suspension is diluted in water and samples (10, 50 and 100 μl; q.s. to 100 μl with water) are diluted with 100 μl of 1% SDS. The sample is vortexed and allowed to stand for 5 min. Two aliquots each of the solubilized protein sample are placed in clean 13×100 test tubes for the assay. Instructions are followed as outlined in the BioRad DC protein determination kit (Catalog # 500-0112). OD readings that fall between 0.1-0.5 (mid-range of standard curve) should typically be used for calculations. Protein concentrations are calculated from a standard curve using bovine serum albumin as standard by linear regression and interpolation.
Following cell harvesting and protein determination, the homogenate is diluted with 10% DMSO to the correct volume based on Bmax and relative size of individual experiments to be conducted. The concentrated protein is stored in cryogenic vials in aliquots of 1-1.5 ml. Samples may be stored in −80° C. freezer or in liquid nitrogen.

[2] = molecular target: human dopamine D2Long (D2L) receptors (Homo sapiens, UniProt P14416)
Sequence of human dopamine D2Long (D2L) receptors (P14416 whole entry): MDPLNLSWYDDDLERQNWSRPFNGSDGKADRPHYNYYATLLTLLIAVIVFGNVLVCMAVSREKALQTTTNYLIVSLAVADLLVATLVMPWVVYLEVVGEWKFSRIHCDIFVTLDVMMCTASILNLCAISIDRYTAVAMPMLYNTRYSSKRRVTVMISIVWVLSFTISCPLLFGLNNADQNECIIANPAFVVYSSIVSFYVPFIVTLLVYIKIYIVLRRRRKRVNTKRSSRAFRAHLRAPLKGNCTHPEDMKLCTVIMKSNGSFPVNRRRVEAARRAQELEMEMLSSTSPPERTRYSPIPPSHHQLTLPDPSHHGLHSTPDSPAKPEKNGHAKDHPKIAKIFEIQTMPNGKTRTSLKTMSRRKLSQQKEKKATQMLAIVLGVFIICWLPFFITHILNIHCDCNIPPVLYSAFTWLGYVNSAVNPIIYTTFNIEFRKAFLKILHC
Description: [N-Methyl-^3H]Spiroperidol Binding to Cloned Human Dopamine D2Long Receptors
This assay measures the in vitro activity of drugs on cloned human dopamine D2Long (D2L) receptors and predicts the direct dopamine-displacing properties of neuropsychiatric, cardiovascular and renal agents at human dopamine D2 receptors.
Cells were maintained in Ham's F12+10% Fetal Bovine Serum+Penicillin/Streptomycin (100 U/ml/100 μg/ml)+G418 (400 μg/ml) medium and were split using Trypsin-EDTA (1 ml/plate, room temperature for ˜2 min. or until cells have lifted off plates). • 2. […] Plates are incubated at 37° C.+5% CO2 for ˜3 days or until cells were confluent.
Cells are harvested by mechanical scraping, washed using PBS collected in 250 ml Corning polypropylene centrifuge tubes, spun down and resuspended in dH2O (final volume per harvest approximately 60 ml). Protein determination is made according to the method of Lowry (Biorad DC Assay Kit). Following the determination of the protein concentration, the protein is diluted into distilled water with 10% DMSO to the appropriate volume based on expression levels (Bmax). The concentrated protein is aliquoted into 1.5 ml screw top eppendorf tubes and placed into a −80° C. freezer.
Assay Requirement: 1 cryovial per two 96 well plates
0.5M Tris Wash Buffer, pH 7.7 • a) 44.4 g Tris HCl • 26.5 g Tris Base • q.s. to 1 Liter (0.5 M Tris buffer, pH 7.7 at 37° C.) • b) make a 1:10 dilution in distilled H2O (0.05 M. Tris buffer, pH 7.7) • 2. Tris Buffer containing physiological salts • a) Stock buffer • NaCl 7.014 g • KCl 0.372 g • CaCl2 0.222 g • MgCl2 0.204 g • q.s. To 100 ml with 0.5 M. Tris Buffer • b) Dilute 1:10 in distilled H2O • This yields 0.05 M. Tris HCl, pH 7.7, containing NaCl (120 mM), KCl (5 mM), CaCl2 (2 mM) and MgCl2 (1 mM) • Optional: add 0.1% ascorbic acid and check pH (in assays with compounds that may oxidize. • c) 1.0% polyethyleneimine stock in 0.5M Tris (reagent 1.a) • Dilute 1:10 in distilled H2O Binding Assay • 750 μl Tissue • 150 μl [^3H]NMSP • 100 μl vehicle (for total binding) or 30 μM (−)
eticlopride (for nonspecific binding) or appropriate drug concentration.
The 96-Well Packard Unifilters GF/B are incubated for >1 h at 25° C. in 0.1% polyethylenimine. The cold tissue is added last and mixed on a orbital shaker for a few seconds and is then incubated at 37° C. for 30 min in a shaking water bath. The assay is stopped by rapid filtration through Packard Unifilter plates. The filter membranes are then washed with 15 ml of ice-cold 0.05 M Tris buffer. The filters are then dried (˜15 min. under a heat lamp or incubated for 15 min. in a 60° C. oven) and a bottom seal is applied. Then 40 μl of Packard Microscint 20 scintillation cocktail are added and a permanent topseal (Type P) is applied and heat sealed. The plates are placed in a Packard Topcount.
Specific binding is defined as the difference between total binding and the binding in the presence of 3 μM S-(−)-eticlopride. Total binding is approximately 10% of the total added ligand. […] The percent inhibition at each drug concentration is the mean of duplicate determinations.

T1 sequence (P21728 whole entry, the tested form may be a part): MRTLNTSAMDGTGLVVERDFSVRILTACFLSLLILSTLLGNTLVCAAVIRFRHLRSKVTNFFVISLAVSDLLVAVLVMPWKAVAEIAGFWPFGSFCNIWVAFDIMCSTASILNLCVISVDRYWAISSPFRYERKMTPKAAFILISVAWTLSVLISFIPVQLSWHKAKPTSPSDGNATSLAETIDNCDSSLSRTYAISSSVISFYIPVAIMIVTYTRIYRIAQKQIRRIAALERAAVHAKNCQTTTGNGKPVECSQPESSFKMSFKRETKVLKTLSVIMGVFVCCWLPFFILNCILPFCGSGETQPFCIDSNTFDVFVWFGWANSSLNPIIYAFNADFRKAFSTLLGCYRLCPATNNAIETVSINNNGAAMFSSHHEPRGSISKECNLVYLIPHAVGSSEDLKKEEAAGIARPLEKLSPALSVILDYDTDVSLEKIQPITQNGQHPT

Row | Compound | pKi [1] | pKi [2]
1 | CCC(NC(=O)c1ccc(C)cc1)C(C)CN1CCC([C@@H]2Cc3c(ccc(C)c3O)[C@H](CN)O2)CC1 (stereo partly drawn) [Example 14, N-{3-[4-((1R,3S)-1-Aminomethyl-5-hydroxy-6-methyl-isochroman-3-yl)-piperidin-1-yl]-1-ethyl-2-methyl-propyl}-4-methyl-benzamide dihydrochloride] | 6.56 | ≤ 4.00
2 | Cc1ccc2c(c1O)C[C@@H](C1CCN(CCC(C)NC(=O)c3ccc(-c4ccccc4)cc3)CC1)O[C@H]2CN (stereo partly drawn) [Example 18, Biphenyl-4-carboxylic acid {3-[4-((1R,3S)-1-aminomethyl-5-hydroxy-6-methyl-isochroman-3-yl)-piperidin-1-yl]-1-methyl-propyl}-amide dihydrochloride] | 6.61 | 6.41
3 | Cc1ccc2c(c1O)C[C@@H](C1CCN(CCC(C)NC(=O)c3ccc([N+](=O)[O-])cc3)CC1)O[C@H]2CN (stereo partly drawn) [Example 24, N-{3-[4-((1R,3S)-1-Aminomethyl-5-hydroxy-6-methyl-isochroman-3-yl)-piperidin-1-yl]-1-methyl-propyl}-4-nitro-benzamide dihydrochloride] | 6.62 | 6.20
4 | Cc1ccc2c(c1O)C[C@@H](C1CCN(CC(C)C)CC1)O[C@H]2CN [Example 40, (1R,3S)-1-Aminomethyl-3-(1-isobutyl-piperidin-4-yl)-6-methyl-isochroman-5-ol dihydrochloride] | 6.44 | ≤ 5.00
5 | Cc1ccc2c(c1O)C[C@@H](C1CCN(CC(C)(C)C)CC1)O[C@H]2CN [Example 42, (1R,3S)-1-Aminomethyl-3-[1-(2,2-dimethyl-propyl)-piperidin-4-yl]-6-methyl-isochroman-5-ol dihydrochloride] | 6.40 | ≤ 5.00
6 | Cc1ccccc1CN1CCC([C@@H]2Cc3c(ccc(C)c3O)[C@H](CN)O2)CC1 [Example 64, (1R,3S)-1-Aminomethyl-6-methyl-3-[1-(2-methyl-benzyl)-piperidin-4-yl]-isochroman-5-ol dihydrochloride] | 6.70 | 6.24
7 | Cc1ccc2c(c1O)C[C@@H](C1CCN(Cc3ccccc3C(F)(F)F)CC1)O[C@H]2CN [Example 72, (1R,3S)-1-Aminomethyl-6-methyl-3-[1-(2-trifluoromethyl-benzyl)-piperidin-4-yl]-isochroman-5-ol dihydrochloride] | 6.80 | 6.58
8 | Cc1ccc2c(c1O)C[C@@H](C1CCN(C(=O)N(c3ccccc3)c3ccccc3)CC1)O[C@H]2CN [Example 130, 4-((1R,3S)-1-Aminomethyl-5-hydroxy-6-methyl-isochroman-3-yl)-piperidine-1-carboxylic acid diphenylamide hydrochloride] | 6.81 | 
9 | C=CCN(CC=C)C[C@@H]1O[C@H](C2CCN(Cc3ccc(C(F)(F)F)cc3)CC2)Cc2c1ccc(C)c2O [Example 185, (1R,3S)-1-Diallylaminomethyl-6-methyl-3-[1-(4-trifluoromethyl-benzyl)-piperidin-4-yl]-isochroman-5-ol] | 5.51 | 
10 | C=CCNC[C@@H]1O[C@H](C2CCN(Cc3ccccc3)CC2)Cc2c1ccc(C)c2O [Example 186, (1R,3S)-1-Allylaminomethyl-3-(1-benzyl-piperidin-4-yl)-6-methyl-isochroman-5-ol] | 5.72 | 
11 | C=CCN(CC=C)C[C@@H]1O[C@H](C2CCN(Cc3ccccc3)CC2)Cc2c1ccc(C)c2O [Example 187, (1R,3S)-3-(1-Benzyl-piperidin-4-yl)-1-diallylaminomethyl-6-methyl-isochroman-5-ol] | 5.58 | 
12 | Cc1ccc2c(c1O)C[C@@H](C1CCN(C(C(=O)O)c3ccccc3)CC1)O[C@H]2CN (stereo partly drawn) [Example 195, [4-((1R,3S)-1-Aminomethyl-5-hydroxy-6-methyl-isochroman-3-yl)-piperidin-1-yl]-phenylacetic acid dihydrobromide] | 5.77 | 

The remaining molecules from weak to strong by pKi [1], led by results:

Row | pKi [1] | pKi [2] | Compound
13 | 6.81 |  | Cc1ccc2c(c1O)C[C@@H](C1CCN(C(C)c3ccccc3)CC1)O[C@H]2CN (stereo partly drawn) [Example 51, (1R,3S)-1-Aminomethyl-6-methyl-3-[1-(1-phenyl-ethyl)-piperidin-4-yl]-isochroman-5-ol dihydrochloride]
14 | 6.95 | ≤ 5.00 | Cc1ccc2c(c1O)C[C@@H](C1CCN(Cc3ccccn3)CC1)O[C@H]2CN [Example 52, (1R,3S)-1-Aminomethyl-6-methyl-3-(1-pyridin-2-ylmethyl-piperidin-4-yl)-isochroman-5-ol dihydrochloride]
15 | 6.96 |  | CCCN(C)C[C@@H]1O[C@H](C2CCN(Cc3ccc(C(F)(F)F)cc3)CC2)Cc2c1ccc(C)c2O [Example 184, (1R,3S)-6-Methyl-1-[(methyl-propyl-amino)-methyl]-3-[1-(4-trifluoromethyl-benzyl)-piperidin-4-yl]-isochroman-5-ol]
16 | 7.01 | 6.63 | COc1ccccc1CN1CCC([C@@H]2Cc3c(ccc(C)c3O)[C@H](CN)O2)CC1 [Example 68, (1R,3S)-1-Aminomethyl-3-[1-(2-methoxy-benzyl)-piperidin-4-yl]-6-methyl-isochroman-5-ol dihydrochloride]
17 | 7.09 | 6.51 | Cc1ccc2c(c1O)C[C@@H](C1CCN(Cc3cccc(C(F)(F)F)c3Cl)CC1)O[C@H]2CN [Example 79, (1R,3S)-1-Aminomethyl-3-[1-(2-chloro-3-trifluoromethyl-benzyl)-piperidin-4-yl]-6-methyl-isochroman-5-ol dihydrochloride]
18 | 7.31 | 6.25 | Cc1ccc2c(c1O)C[C@@H](C1CCN(Cc3cccc(C(F)(F)F)c3F)CC1)O[C@H]2CN [Example 80, (1R,3S)-1-Aminomethyl-3-[1-(2-fluoro-3-trifluoromethyl-benzyl)-piperidin-4-yl]-6-methyl-isochroman-5-ol dihydrochloride]
19 | 7.33 | 6.44 | Cc1ccc2c(c1O)C[C@@H](C1CCN(Cc3ccc(F)cc3F)CC1)O[C@H]2CN [Example 50, (1R,3S)-1-Aminomethyl-3-[1-(2,4-difluoro-benzyl)-piperidin-4-yl]-6-methyl-isochroman-5-ol dihydrochloride]
20 | 7.48 | 6.35 | Cc1ccc2c(c1O)C[C@@H](C1CCN(Cc3cc(F)cc(C(F)(F)F)c3)CC1)O[C@H]2CN [Example 84, (1R,3S)-1-Aminomethyl-3-[1-(3-fluoro-5-trifluoromethyl-benzyl)-piperidin-4-yl]-6-methyl-isochroman-5-ol dihydrochloride]
21 | 7.54 | 6.46 | Cc1ccc2c(c1O)C[C@@H](C1CCN(Cc3cc(C(F)(F)F)ccc3F)CC1)O[C@H]2CN [Example 81, (1R,3S)-1-Aminomethyl-3-[1-(2-fluoro-5-trifluoromethyl-benzyl)-piperidin-4-yl]-6-methyl-isochroman-5-ol dihydrochloride]
22 | 7.80 | 6.21 | Cc1ccc2c(c1O)C[C@@H](C1CCN(Cc3ccc(F)c(C(F)(F)F)c3)CC1)O[C@H]2CN [Example 83, (1R,3S)-1-Aminomethyl-3-[1-(4-fluoro-3-trifluoromethyl-benzyl)-piperidin-4-yl]-6-methyl-isochroman-5-ol dihydrochloride]
23 | 7.81 | ≤ 5.00 | Cc1ccc2c(c1O)C[C@@H](C1CCN(Cc3ccc(C(F)(F)F)c(F)c3)CC1)O[C@H]2CN [Example 82, (1R,3S)-1-Aminomethyl-3-[1-(3-fluoro-4-trifluoromethyl-benzyl)-piperidin-4-yl]-6-methyl-isochroman-5-ol dihydrochloride]
